Source: publication PMC10763615, “Identification and engineering of potent cyclic peptides with selective or promiscuous binding through biochemical profiling and bioinformatic data analysis” (RSC Chemical Biology, 2023)
pKd: −log10 of the molar value. Read-outs that look alike come from different tables or passages of the source. Positions of bridges follow the written chain, without caps; N, C: chain ends. Residues, ends and D or L forms follow the SMILES beside them.

Experiments:
Type in all cases: binding
FGF-R4 ECD = target: T1, FGF-R4 ECD (Homo sapiens, UniProt P22455); assay: single concentration BLI of crude peptides; details: read-out: KD (4)
T1 construct: DNA constructs for the extracellular domain (ECD) of human FGF-; HPC4 (C); made in house; host or cells: HEK 293-6E
T1 sequence (P22455 22-369 limits assumed): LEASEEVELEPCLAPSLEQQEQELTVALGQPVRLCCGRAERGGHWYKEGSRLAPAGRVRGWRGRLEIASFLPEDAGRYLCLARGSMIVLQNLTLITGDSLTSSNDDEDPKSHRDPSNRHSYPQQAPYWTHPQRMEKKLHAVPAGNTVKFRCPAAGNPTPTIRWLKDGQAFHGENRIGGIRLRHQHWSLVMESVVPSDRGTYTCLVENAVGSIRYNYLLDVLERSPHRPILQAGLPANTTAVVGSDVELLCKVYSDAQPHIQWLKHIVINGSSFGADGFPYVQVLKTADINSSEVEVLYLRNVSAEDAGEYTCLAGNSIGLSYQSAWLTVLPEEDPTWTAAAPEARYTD
Description: (§1) KD affinity binding measurements were obtained by biolayer interferometry (BLI) instruments (Fortebio Octet HTX, or Sartorius Octet RH16 using either 8 or 16 channel mode.
For single concentration binding experiments, 50 μM peptide stocks in folding buffer were diluted 1:50 in mRNA display selection buffer (PBS pH7.4 supplemented with 0.05% Tween-20 and 0.01% BSA) in either a 96 well black plate, or a 384 well tilted bottom microplate (ForteBio). Biotinylated FGF-R protein was loaded onto Streptavidin-functionalised biosensors (ForteBio) and immersed into ~1 μM peptide to obtain association kinetics curves. Dissociation kinetics curves were obtained by subsequent immersion of ligand-associated loaded sensors into a 1:50 dilution of folding buffer in mRNA display selection buffer. Fitted KD data was adjusted for concentration as determined by UPLC-CAD. […]

FGF-R1C ECD = target: T2, FGF-R1C ECD (Homo sapiens, UniProt P11362); assay: biochemical; design: DNA constructs for the extracellular domain (ECD) of human FGF-; HPC4 (C); made in house; host or cells: HEK 293-6E
T2 sequence (P11362 22-376 limits assumed): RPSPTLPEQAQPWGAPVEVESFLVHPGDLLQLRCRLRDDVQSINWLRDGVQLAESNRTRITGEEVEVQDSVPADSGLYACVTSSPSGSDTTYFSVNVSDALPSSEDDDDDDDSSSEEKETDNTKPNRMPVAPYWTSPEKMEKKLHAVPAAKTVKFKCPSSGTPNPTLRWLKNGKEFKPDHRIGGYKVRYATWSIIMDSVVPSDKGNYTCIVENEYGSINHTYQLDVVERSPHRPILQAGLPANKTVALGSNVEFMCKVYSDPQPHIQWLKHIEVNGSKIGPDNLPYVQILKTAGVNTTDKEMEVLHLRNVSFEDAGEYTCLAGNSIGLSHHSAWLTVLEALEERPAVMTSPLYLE
Description: as §1
(§2) For single concentration binding experiments, 50 μM peptide stocks in folding buffer were diluted 1:50 in mRNA display selection buffer (PBS pH7.4 supplemented with 0.05% Tween-20 and 0.01% BSA) in either a 96 well black plate, or a 384 well tilted bottom microplate (ForteBio). Biotinylated FGF-R protein was loaded onto Streptavidin-functionalised biosensors (ForteBio) and immersed into ~1 μM peptide to obtain association kinetics curves. Dissociation kinetics curves were obtained by subsequent immersion of ligand-associated loaded sensors into a 1:50 dilution of folding buffer in mRNA display selection buffer. Fitted KD data was adjusted for concentration as determined by UPLC-CAD.
(§3) For accurate multi-concentration KD determination, dilution series of each peptide were made, and association and dissociation kinetics curves were obtained as above for each concentration to fit a multi-point KD binding model. Data collection and analysis was performed using the Octet Instrument Control […]
(§4) concentration assay kinetics curves shown in supplementary Figure S 19-24.

FGF-R3C ECD = target: T3, FGF-R3C ECD (Homo sapiens, UniProt P22607); assay: biochemical; design: DNA constructs for the extracellular domain (ECD) of human FGF-; HPC4 (C); made in house; host or cells: HEK 293-6E
T3 sequence (P22607 23-375 limits assumed): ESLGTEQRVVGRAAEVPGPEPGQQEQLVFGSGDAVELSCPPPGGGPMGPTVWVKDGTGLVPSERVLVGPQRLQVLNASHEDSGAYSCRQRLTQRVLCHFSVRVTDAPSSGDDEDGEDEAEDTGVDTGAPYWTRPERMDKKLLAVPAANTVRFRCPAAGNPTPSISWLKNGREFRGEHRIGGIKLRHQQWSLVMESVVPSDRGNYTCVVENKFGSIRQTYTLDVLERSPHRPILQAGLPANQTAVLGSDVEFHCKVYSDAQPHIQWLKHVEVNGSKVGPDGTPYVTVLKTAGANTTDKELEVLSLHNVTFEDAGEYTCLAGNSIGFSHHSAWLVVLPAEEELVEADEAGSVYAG
Description: as §1, §2, §3, §4

[1] = crude T18 selection 1 (1:1:1) peptides, single concentration BLI (Table S4)
[2] = crude NNK peptides, single concentration BLI (Table S3)

SMILES	pKd (FGF-R4 ECD; [1])	pKd (FGF-R1C ECD)	pKd (FGF-R3C ECD)	pKd (FGF-R4 ECD; [2])
CC[C@H](C)[C@@H]1NC(=O)[C@H](Cc2c[nH]c3ccccc23)NC(=O)[C@H](Cc2c[nH]c3ccccc23)NC(=O)[C@H](CCCNC(=N)N)NC(=O)[C@H](C)NC(=O)[C@H](Cc2ccc(O)cc2)NC(=O)[C@H](CCC(N)=O)NC(=O)[C@H](C)NC(=O)[C@H](CCCNC(=N)N)NC(=O)[C@H]([C@@H](C)CC)NC(=O)[C@H](CO)NC(=O)[C@H](CC(=O)O)NC(=O)[C@@H](NC(=O)[C@H](CCSC)NC(C)=O)CSSC[C@@H](C(=O)NCC(=O)N[C@@H](CO)C(=O)NCC(=O)N[C@@H](CO)C(=O)N[C@@H](CC(=O)O)C(=O)N[C@@H](Cc2ccc(O)cc2)C(=O)N[C@@H](CCCCN)C(=O)N[C@@H](CC(=O)O)C(=O)N[C@@H](CC(=O)O)C(=O)N[C@@H](CC(=O)O)C(=O)N[C@@H](CC(=O)O)C(=O)N[C@@H](CCCCN)C(N)=O)NC1=O (Ac-MCDSIRAQYARWWICGSGSDYKDDDDK-NH2; disulfide 2-15)	6.74	< 5.00	< 5.00	
CSCC[C@H](NC(C)=O)C(=O)N[C@H]1CSSC[C@@H](C(=O)NCC(=O)N[C@@H](CO)C(=O)NCC(=O)N[C@@H](CO)C(=O)N[C@@H](CC(=O)O)C(=O)N[C@@H](Cc2ccc(O)cc2)C(=O)N[C@@H](CCCCN)C(=O)N[C@@H](CC(=O)O)C(=O)N[C@@H](CC(=O)O)C(=O)N[C@@H](CC(=O)O)C(=O)N[C@@H](CC(=O)O)C(=O)N[C@@H](CCCCN)C(N)=O)NC(=O)[C@H](Cc2c[nH]cn2)NC(=O)[C@H](Cc2c[nH]cn2)NC(=O)[C@H](Cc2ccccc2)NC(=O)[C@H](CC(C)C)NC(=O)[C@H](CC(C)C)NC(=O)[C@H](Cc2ccc(O)cc2)NC(=O)[C@H](Cc2ccc(O)cc2)NC(=O)[C@H](Cc2ccccc2)NC(=O)[C@H](CC(C)C)NC(=O)[C@H](CC(=O)O)NC(=O)[C@H](CCC(=O)O)NC1=O (Ac-MCEDLFYYLLFHHCGSGSDYKDDDDK-NH2; disulfide 2-14)	7.09	5.34	< 5.00	
CSCC[C@H](NC(C)=O)C(=O)N[C@H]1CSSC[C@@H](C(=O)NCC(=O)N[C@@H](CO)C(=O)NCC(=O)N[C@@H](CO)C(=O)N[C@@H](CC(=O)O)C(=O)N[C@@H](Cc2ccc(O)cc2)C(=O)N[C@@H](CCCCN)C(=O)N[C@@H](CC(=O)O)C(=O)N[C@@H](CC(=O)O)C(=O)N[C@@H](CC(=O)O)C(=O)N[C@@H](CC(=O)O)C(=O)N[C@@H](CCCCN)C(N)=O)NC(=O)[C@H](Cc2ccc(O)cc2)NC(=O)[C@H](C(C)C)NC(=O)[C@H](Cc2ccccc2)NC(=O)[C@H](C(C)C)NC(=O)[C@H](CCCCN)NC(=O)[C@H]([C@@H](C)O)NC(=O)[C@H](CCCCN)NC(=O)[C@H](Cc2c[nH]cn2)NC(=O)[C@H](CC(=O)O)NC(=O)[C@H](CC(C)C)NC(=O)[C@H](Cc2ccccc2)NC1=O (Ac-MCFLDHKTKVFVYCGSGSDYKDDDDK-NH2; disulfide 2-14)	6.89	< 5.00	< 5.00	
CC[C@H](C)[C@@H]1NC(=O)[C@H](Cc2ccc(O)cc2)NC(=O)[C@H](C)NC(=O)[C@H](CC(C)C)NC(=O)[C@H](Cc2c[nH]c3ccccc23)NC(=O)[C@@H](NC(=O)[C@H](CCCCN)NC(=O)[C@@H](NC(=O)[C@H](CCSC)NC(=O)[C@H](CCSC)NC(C)=O)C(C)C)CSSC[C@@H](C(=O)NCC(=O)N[C@@H](CO)C(=O)NCC(=O)N[C@@H](CO)C(=O)N[C@@H](CC(=O)O)C(=O)N[C@@H](Cc2ccc(O)cc2)C(=O)N[C@@H](CCCCN)C(=O)N[C@@H](CC(=O)O)C(=O)N[C@@H](CC(=O)O)C(=O)N[C@@H](CC(=O)O)C(=O)N[C@@H](CC(=O)O)C(=O)N[C@@H](CCCCN)C(N)=O)NC(=O)[C@H]([C@@H](C)O)NC(=O)[C@H](CCCNC(=N)N)NC1=O (Ac-MMVKCWLAYIRTCGSGSDYKDDDDK-NH2; disulfide 5-13)		< 5.00	< 5.00	< 5.00
CC[C@H](C)[C@@H]1NC(=O)[C@H](CCCCN)NC(=O)[C@H](Cc2ccc(O)cc2)NC(=O)[C@H]([C@@H](C)CC)NC(=O)[C@H]([C@@H](C)O)NC(=O)[C@H]([C@@H](C)CC)NC(=O)[C@H](Cc2c[nH]cn2)NC(=O)[C@@H](NC(=O)[C@H](CCSC)NC(C)=O)CSSC[C@@H](C(=O)NCC(=O)N[C@@H](CO)C(=O)NCC(=O)N[C@@H](CO)C(=O)N[C@@H](CC(=O)O)C(=O)N[C@@H](Cc2ccc(O)cc2)C(=O)N[C@@H](CCCCN)C(=O)N[C@@H](CC(=O)O)C(=O)N[C@@H](CC(=O)O)C(=O)N[C@@H](CC(=O)O)C(=O)N[C@@H](CC(=O)O)C(=O)N[C@@H](CCCCN)C(N)=O)NC(=O)[C@H](Cc2ccc(O)cc2)NC(=O)[C@H](CCCNC(=N)N)NC(=O)[C@H](CC(C)C)NC1=O (Ac-MCHITIYKILRYCGSGSDYKDDDDK-NH2; disulfide 2-13)		< 5.00	< 5.00	6.91
CSCC[C@H](NC(C)=O)C(=O)N[C@H]1CSSC[C@@H](C(=O)NCC(=O)N[C@@H](CO)C(=O)NCC(=O)N[C@@H](CO)C(=O)N[C@@H](CC(=O)O)C(=O)N[C@@H](Cc2ccc(O)cc2)C(=O)N[C@@H](CCCCN)C(=O)N[C@@H](CC(=O)O)C(=O)N[C@@H](CC(=O)O)C(=O)N[C@@H](CC(=O)O)C(=O)N[C@@H](CC(=O)O)C(=O)N[C@@H](CCCCN)C(N)=O)NC(=O)[C@H](Cc2c[nH]c3ccccc23)NC(=O)[C@H](CC(C)C)NC(=O)[C@H](CCCNC(=N)N)NC(=O)[C@H](Cc2ccc(O)cc2)NC(=O)[C@H](CC(C)C)NC(=O)[C@H](Cc2c[nH]c3ccccc23)NC(=O)[C@H](CC(C)C)NC(=O)[C@H](CC(=O)O)NC(=O)[C@H](CCCCN)NC(=O)[C@H](CO)NC(=O)[C@H](Cc2ccc(O)cc2)NC(=O)[C@H](CCCCN)NC1=O (Ac-MCKYSKDLWLYRLWCGSGSDYKDDDDK-NH2; disulfide 2-15)	8.70	< 5.00	< 5.00	
CC[C@H](C)[C@@H]1NC(=O)[C@H](CCC(=O)O)NC(=O)[C@H](Cc2ccc(O)cc2)NC(=O)[C@H](CCC(=O)O)NC(=O)[C@H](CCCCN)NC(=O)[C@@H](NC(=O)[C@H](CCSC)NC(C)=O)CSSC[C@@H](C(=O)NCC(=O)N[C@@H](CO)C(=O)NCC(=O)N[C@@H](CO)C(=O)N[C@@H](CC(=O)O)C(=O)N[C@@H](Cc2ccc(O)cc2)C(=O)N[C@@H](CCCCN)C(=O)N[C@@H](CC(=O)O)C(=O)N[C@@H](CC(=O)O)C(=O)N[C@@H](CC(=O)O)C(=O)N[C@@H](CC(=O)O)C(=O)N[C@@H](CCCCN)C(N)=O)NC(=O)[C@H](Cc2ccc(O)cc2)NC(=O)[C@H](CCC(N)=O)NC(=O)[C@H](CC(C)C)NC(=O)[C@H](CCCCN)NC(=O)[C@H](Cc2ccc(O)cc2)NC(=O)[C@H](Cc2c[nH]c3ccccc23)NC(=O)[C@H](CC(C)C)NC1=O (Ac-MCKEYEILWYKLQYCGSGSDYKDDDDK-NH2; disulfide 2-15)	7.77	< 5.00	< 5.00	
